Results: paper PMC11003488 (Journal of Enzyme Inhibition and Medicinal Chemistry, 2023)
Values joined by “and” are separate entries in the source; they are usually repeats but may differ in a detail not shown here. Identical values can stand only once. Like-named read-outs stand apart in the source and are kept apart here.

How the values were obtained:
NCI-H23 = test: NCI-60 SRB growth inhibition, one-dose and five-dose; assay type: cell-based; conditions: Homo sapiens
Caspase-3 [1] = test: Protein level by ELISA assay in HCT-116; assay type: cell-based, human; conditions: HCT-116, IC50 of compound, 24 h, vs 0.1% DMSO
NSCLC cell lines = test: NCI-60 SRB growth inhibition, subpanel; assay type: cell-based, human; conditions: for GI50: Homo sapiens
Leukaemia cell lines = test: NCI-60 SRB growth inhibition, subpanel; assay type: cell-based, human; conditions: for GI50: Homo sapiens
SN12C = test: NCI-60 SRB growth inhibition, one-dose and five-dose; assay type: cell-based; conditions: Homo sapiens
Caspase-3 [2] = test: Gene expression by RT-qPCR in HCT-116; conditions: HCT-116, 24 h, IC50 of compound; vs 0.1% DMSO; 2^-ΔΔct
Bax [3] = test: Gene expression by RT-qPCR in HCT-116; conditions: HCT-116, 24 h
SK-MEL-28 = test: NCI-60 SRB growth inhibition, one-dose and five-dose; assay type: cell-based; conditions: Homo sapiens
HL-60(TB) = test: cells; assay type: cell-based; conditions: Homo sapiens
TK-10 = test: NCI-60 SRB growth inhibition, one-dose and five-dose; assay type: cell-based; conditions: Homo sapiens
MOLT-4 = test: as above; assay type: cell-based; conditions: Homo sapiens
PC-3 = test: as above; assay type: cell-based; conditions: Homo sapiens
Colon cancer cell lines = test: NCI-60 SRB growth inhibition, subpanel; assay type: cell-based, human; conditions: for GI50: Homo sapiens
Breast cancer cell lines = test: NCI-60 SRB growth inhibition, subpanel; assay type: cell-based, human; conditions: for GI50: Homo sapiens
KM12 = test: NCI-60 SRB growth inhibition, one-dose and five-dose; assay type: cell-based; conditions: Homo sapiens
UO-31 = test: as above; assay type: cell-based; conditions: Homo sapiens
SW-620 = test: as above; assay type: cell-based; conditions: Homo sapiens
TNF-α = test: Gene expression by RT-qPCR in HCT-116; conditions: HCT-116, 24 h, IC50 of compound; vs 0.1% DMSO; 2^-ΔΔct
RPMI-8226 = test: NCI-60 SRB growth inhibition, one-dose and five-dose; assay type: cell-based; conditions: Homo sapiens
Melanoma cell lines = test: NCI-60 SRB growth inhibition, subpanel; assay type: cell-based, human; conditions: for GI50: Homo sapiens
CNS cancer cell lines = test: NCI-60 SRB growth inhibition, subpanel; assay type: cell-based, human; conditions: for GI50: Homo sapiens
OVCAR-8 = test: NCI-60 SRB growth inhibition, one-dose and five-dose; assay type: cell-based; conditions: Homo sapiens
Bax [4] = test: Protein level by ELISA assay in HCT-116; assay type: cell-based, human; conditions: HCT-116, IC50 of compound, 24 h, vs 0.1% DMSO
MDA-MB-231/ATCC = test: NCI-60 SRB growth inhibition, one-dose and five-dose; assay type: cell-based; conditions: Homo sapiens
[5] = test system: Ovarian cancer cell lines; test: NCI-60 SRB growth inhibition, subpanel; assay type: cell-based, human; conditions: for GI50: Homo sapiens
Human VEGFR-2 = Human VEGFR-2 (Homo sapiens, UniProt P35968); test: VEGFR-2 inhibition assay; assay type: biochemical
Chain of Human VEGFR-2 (P35968 20-1356): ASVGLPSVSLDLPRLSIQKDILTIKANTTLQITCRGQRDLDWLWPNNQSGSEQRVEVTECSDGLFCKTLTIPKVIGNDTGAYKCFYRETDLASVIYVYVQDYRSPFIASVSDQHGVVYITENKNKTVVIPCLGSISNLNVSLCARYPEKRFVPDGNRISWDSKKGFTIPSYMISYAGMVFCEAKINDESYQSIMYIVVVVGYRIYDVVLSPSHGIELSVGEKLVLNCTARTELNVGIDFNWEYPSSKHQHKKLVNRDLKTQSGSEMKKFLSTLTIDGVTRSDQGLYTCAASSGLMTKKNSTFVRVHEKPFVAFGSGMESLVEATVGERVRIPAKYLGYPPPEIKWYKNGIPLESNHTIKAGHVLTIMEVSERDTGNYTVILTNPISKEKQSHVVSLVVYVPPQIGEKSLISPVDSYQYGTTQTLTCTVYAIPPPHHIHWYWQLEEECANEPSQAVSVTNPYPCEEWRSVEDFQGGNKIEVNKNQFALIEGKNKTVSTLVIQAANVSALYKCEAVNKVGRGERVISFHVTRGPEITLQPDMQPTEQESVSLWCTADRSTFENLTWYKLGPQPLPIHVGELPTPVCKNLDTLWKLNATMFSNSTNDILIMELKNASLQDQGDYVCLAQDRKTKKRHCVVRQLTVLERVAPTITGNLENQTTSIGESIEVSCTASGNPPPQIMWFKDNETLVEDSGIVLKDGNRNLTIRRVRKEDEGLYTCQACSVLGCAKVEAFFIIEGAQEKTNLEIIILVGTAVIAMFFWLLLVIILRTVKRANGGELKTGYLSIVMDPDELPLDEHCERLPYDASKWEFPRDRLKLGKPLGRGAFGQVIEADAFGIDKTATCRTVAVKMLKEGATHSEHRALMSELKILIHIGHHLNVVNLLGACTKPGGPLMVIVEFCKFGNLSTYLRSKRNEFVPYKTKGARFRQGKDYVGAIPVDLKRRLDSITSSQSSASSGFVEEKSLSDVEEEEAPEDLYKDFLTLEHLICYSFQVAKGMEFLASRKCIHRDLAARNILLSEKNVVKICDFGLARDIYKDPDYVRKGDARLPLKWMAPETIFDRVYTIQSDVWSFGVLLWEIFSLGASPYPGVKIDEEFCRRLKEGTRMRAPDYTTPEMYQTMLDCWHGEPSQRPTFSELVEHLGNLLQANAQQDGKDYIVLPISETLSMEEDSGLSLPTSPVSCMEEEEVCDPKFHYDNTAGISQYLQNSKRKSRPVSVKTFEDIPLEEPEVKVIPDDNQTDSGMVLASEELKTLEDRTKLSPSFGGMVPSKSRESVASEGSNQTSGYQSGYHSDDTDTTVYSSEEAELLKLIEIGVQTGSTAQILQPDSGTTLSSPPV

HCT-116 (colon cancer) [6] = test: Cell cycle analysis by PI flow cytometry; assay type: cell-based, human; conditions: HCT-116, 24 h, IC50 of compound
EKVX = test: NCI-60 SRB growth inhibition, one-dose and five-dose; assay type: cell-based; conditions: Homo sapiens
[7] = test system: Prostate cancer cell lines; test: NCI-60 SRB growth inhibition, subpanel; assay type: cell-based, human; conditions: for GI50: Homo sapiens
UACC-257 = test: NCI-60 SRB growth inhibition, one-dose and five-dose; assay type: cell-based; conditions: Homo sapiens
SK-OV-3 = test: as above; assay type: cell-based; conditions: Homo sapiens
M14 = test: as above; assay type: cell-based; conditions: Homo sapiens
Renal cancer cell lines = test: NCI-60 SRB growth inhibition, subpanel; assay type: cell-based, human; conditions: for GI50: Homo sapiens
U251 = test: NCI-60 SRB growth inhibition, one-dose and five-dose; assay type: cell-based; conditions: Homo sapiens
[8] = Cytotoxicity towards normal fibroblasts, safety index; assay type: cell-based, human; conditions: human, WI-38 normal fibroblast cells
[9] = test system: WI-38 normal human fibroblast cells; test: as above; assay type: cell-based; conditions: WI-38 versus cancer cell lines
MDA-MB-468 = test: NCI-60 SRB growth inhibition, one-dose and five-dose; assay type: cell-based; conditions: Homo sapiens
HCT-116 (colon cancer) [10] = test: Apoptosis AV/PI assay by flow cytometry; assay type: cell-based, human; conditions: HCT-116, 24 h, IC50 of compound
[11] = read-out: percent growth inhibition

## COc1ccc(CNc2cccc(C(=O)/C=C/c3ccc(NC(C)=O)cc3)c2)cc1OC [Compound 5h, (E)-N-(4–(3-(3-((3,4-dimethoxybenzyl)amino)phenyl)-3-oxoprop-1-en-1-yl)phenyl) acetamide]
NCI-H23; NCI-H23
  GI50: 4.26 µM
NCI-H23; NCI-H23, read-out: percent growth inhibition
  inhibition at 10 µM: 105%
Caspase-3 [1]
  caspase-3 protein level: 43.12 fold
NSCLC cell lines; read-out: GI50 MG-MID
  GI50: 8.91 µM
NSCLC cell lines; read-out: MG-MID GI50
  GI50: 8.91 µM
NSCLC cell lines; full panel MG-MID / NSCLC subpanel MG-MID
  SI (Selectivity Index): 0.50
Leukaemia cell lines; read-out: GI50 MG-MID
  GI50: 2.36 µM
Leukaemia cell lines; read-out: MG-MID GI50
  GI50: 2.36 µM
Leukaemia cell lines; full panel MG-MID / leukaemia subpanel MG-MID
  SI (Selectivity Index): 1.90
SN12C
  GI50: 2.48 µM
SN12C; [11]
  inhibition at 10 µM: 135%
Caspase-3 [2]
  Caspase-3 gene expression fold change: 0.002 fold
Bax [3]; IC50 of compound, vs 0.1% DMSO, 2^-ΔΔct
  Bax gene expression fold change: 30.06 ± 3.4 fold
Bax [3]; ratio of gene expression fold changes
  Bax/Bcl-2 ratio: 31.6
SK-MEL-28; SK-MEL-28
  GI50: 2.82 µM
SK-MEL-28; SK-MEL-28, read-out: percent growth inhibition
  inhibition at 10 µM: 108%
HL-60(TB); HL-60
  GI50: 2.54 µM
HL-60(TB); HL-60, read-out: percent growth inhibition
  inhibition at 10 µM: 78.8%
TK-10; TK-10
  GI50: 4.09 µM
TK-10; TK-10, read-out: percent growth inhibition
  inhibition at 10 µM: 60.7%
MOLT-4; MOLT-4
  GI50: 2.68 µM
MOLT-4; MOLT-4, read-out: percent growth inhibition
  inhibition at 10 µM: 78.3%
PC-3; PC-3
  GI50: 2.81 µM
PC-3; PC-3, read-out: percent growth inhibition
  inhibition at 10 µM: 85%
Colon cancer cell lines; read-out: GI50 MG-MID
  GI50: 3.24 µM
Colon cancer cell lines; read-out: MG-MID GI50
  GI50: 3.24 µM
Colon cancer cell lines; full panel MG-MID / Colon Cancer subpanel MG-MID
  SI (Selectivity Index): 1.38
Breast cancer cell lines; read-out: GI50 MG-MID
  GI50: 2.91 µM
Breast cancer cell lines; read-out: MG-MID GI50
  GI50: 2.91 µM
Breast cancer cell lines; full panel MG-MID / Breast Cancer subpanel MG-MID
  SI (Selectivity Index): 1.54
KM12; KM12
  GI50: 1.94 µM
KM12; KM12, read-out: percent growth inhibition
  inhibition at 10 µM: 159%
UO-31; UO-31
  GI50: 3 µM
UO-31; UO-31, read-out: percent growth inhibition
  inhibition at 10 µM: 160%
SW-620; SW-620
  GI50: 2 µM
SW-620; SW-620, read-out: percent growth inhibition
  inhibition at 10 µM: 157%
TNF-α
  TNF-α gene expression fold change: 2.2 fold and 2.20 ± 0.17 fold
RPMI-8226; RPMI-8226
  GI50: 1.79 µM
RPMI-8226; RPMI-8226, read-out: percent growth inhibition
  inhibition at 10 µM: 112%
Melanoma cell lines; read-out: GI50 MG-MID
  GI50: 4.44 µM
Melanoma cell lines; read-out: MG-MID GI50
  GI50: 4.44 µM
Melanoma cell lines; full panel MG-MID / Melanoma subpanel MG-MID
  SI (Selectivity Index): 1.01
CNS cancer cell lines; read-out: GI50 MG-MID
  GI50: 5.22 µM
CNS cancer cell lines; read-out: MG-MID GI50
  GI50: 5.22 µM
CNS cancer cell lines; full panel MG-MID / CNS Cancer subpanel MG-MID
  SI (Selectivity Index): 0.86
OVCAR-8; OVCAR-8
  GI50: 2.97 µM
OVCAR-8; OVCAR-8, read-out: percent growth inhibition
  inhibition at 10 µM: 95.7%
Bax [4]
  Bax protein level: 2.96 fold
MDA-MB-231/ATCC; MDA-MB-231
  GI50: 2.84 µM
MDA-MB-231/ATCC; MDA-MB-231, read-out: percent growth inhibition
  inhibition at 10 µM: 89.4%
[5]; read-out: GI50 MG-MID
  GI50: 5.75 µM
[5]; read-out: MG-MID GI50
  GI50: 5.75 µM
[5]; full panel MG-MID / Ovarian Cancer subpanel MG-MID
  SI (Selectivity Index): 0.78
Human VEGFR-2
  IC50: 0.31 ± 0.015 µM
HCT-116 (colon cancer) [6]
  % G0-G1: 35.12 ± 3.5%
  % G2M: 3.21 ± 1.1%
  % S: 4.91 ± 1.1%
  % SubG0-G1: 56.87 ± 7.7%
EKVX
  GI50: 4.09 µM
EKVX; [11]
  inhibition at 10 µM: 94.9%
[7]; read-out: GI50 MG-MID
  GI50: 3.53 µM
[7]; read-out: MG-MID GI50
  GI50: 3.53 µM
[7]; full panel MG-MID / Prostatic Cancer subpanel MG-MID
  SI (Selectivity Index): 1.27
UACC-257; UACC-257
  GI50: 9.28 µM
UACC-257; UACC-257, read-out: percent growth inhibition
  inhibition at 10 µM: 61.5%
SK-OV-3; SK-OV-3
  GI50: 20 µM
SK-OV-3; SK-OV-3, read-out: percent growth inhibition
  inhibition at 10 µM: 75.5%
M14; M14
  GI50: 1.72 µM
M14; M14, read-out: percent growth inhibition
  inhibition at 10 µM: 142%
Renal cancer cell lines; read-out: GI50 MG-MID
  GI50: 3.99 µM
Renal cancer cell lines; read-out: MG-MID GI50
  GI50: 3.99 µM
Renal cancer cell lines; full panel MG-MID / Renal Cancer subpanel MG-MID
  SI (Selectivity Index): 1.12
U251; U-251
  GI50: 2.88 µM
U251; U-251, read-out: percent growth inhibition
  inhibition at 10 µM: 150%
[8]
  GI50 at 48 h: > 100 µM
[9]
  Safety index: >1
MDA-MB-468; MDA-MB-468
  GI50: 2.44 µM
MDA-MB-468; MDA-MB-468, read-out: percent growth inhibition
  inhibition at 10 µM: 166%
HCT-116 (colon cancer) [10]
  % Early apoptotic cells (LR): 0.24 ± 0.01%
  % Late apoptotic cells (UL): 64.62 ± 10.1%
  % Necrotic cells (UR): 2.25 ± 0.71%
  % Viable cells (LL): 32.89 ± 3.8%
